Key:
HEK-293 cells = assay: patch-clamp recordings in whole-cell configuration; assay type: cell-based
Text: FIG. 11 illustrates voltage clamp recordings in whole cell configuration (HEK-293 cells). (A) Current across membrane after application of calixarene tetrabutylamide 2 at different voltages. From bottom to top, trace denotes currents at −120, −80, −40, 0, 40, 80 and 120 mV, respectively, with saline physiological buffer being used (B) Current across membrane in a sodium glutamate isosmotic-buffer at different voltages. The potential was varied over a range of −120 through +120 mV, with a 40 mV step. (C) Current across membrane in Na2SO4 isosmotic buffer at different voltages. The potential was varied over a range of −120 through +120 mV, with a 40 mV steps. (D) Current across the membrane at +120 mV in application/wash cycle traces from bottom to top denote current in absence of 2, current after first application of 2 (a), following by […] lavage, second application (b), and third application (c). Trace on top denotes current after lavage without application of 2. Baselines of the first and last traces shifted for clarity, saline physiological buffer used.
Electrophysiological Recordings. Patch-Clamp Experiments. HEK 293 cells, plated in […] dishes containing 10 mL of the growth media were maintained at 37° C. with 5% CO2 in the incubator. Growth medium for HEK 293 cells was minimum essential medium supplemented with 10% fetal bovine serum, 100 U mL penicillin and 100 μg/mL streptomycin. Electrophysiological recordings were performed in the whole-cell configuration of the patch-clamp technique using a DAGAN 8900 amplifier (Dagan Corp., Minneapolis, Minn.). The patch electrodes, pulled from borosilicate class capillaries, had resistance of 3-4 MΩ when filled with internal solution containing (in mM): CsCl 110: tetraethylammonium chloride, 20; MgATP. 5:EGTA. 14: HEPES, 20 and titrated to pH 7.4 with CsOH. Approximately 90% of electrode resistance was compensated electronically, so that effective series resistance was less than 1 MΩ. HEK cells were used for experiments 2 to 4 days after plating the cells on the cover sips. Generation of the voltage-clamp protocols and data acquisition were carried out using PCLAMP software (Axon instruments, Inc., Burlingame, Calif.). Sampling frequency was 0.5-2.0 kHz, and current signals were filtered at […] before digitization and storage. All experiments were performed at room temperature (23-25° C.). […] Cells plated on plastic cover slips 915 mm round thermanox, Nunc, Inc., Napierville, Ill.) were transferred to an experimental chamber mounted on the stage of an inverted microscope (Diaphot, Nikon, Nagano, Japan) and were bathed in a solution containing (in mM):NaCl, 137:CaCl2, 2; KCl. 5.4; HEPES, 10; glucose, 10:glucose, 10; MgCl2, 1 (pH 7.4 adjusted with NaOH). The experimental chamber was constantly perfused at a rate of about 1 mL/min with a control bathing solution. In solutions buffered on the cell under recording KCl was omitted and in some experiments NaCl was replaced by isoosmotic amounts of Na2SO4 or Na glutamate. Servo-controlled miniature solenoid valves were used for rapid switching between control and test solutions (delay in solution change was <20 ms). Compound 2 was dissolved in DMSO, and DMSO was added in an equal amount to the control and test solutions.

[1] = intravesicular pH of LUVs experiencing a Cl- gradient (calixarene amides); assay type: biochemical; conditions: NaCl-loaded LUVs in isosmotic Na2SO4 buffer
Experimental: FIG. 8 illustrates changes in intravesicular pH upon addition of calixarene tetrabutylamide and calixarene octabutylamide to NaCl^+ loaded vesicles suspended in a sulfate phosphate buffer (emission of HPTS is used to monitor the pH changes in LUVs). At t=60 s, 20 μL of 500 μM of calixarene tetrabutylamide 2 (top trace) or the octabutylamide 3 (bottom trace) was added to 1.95 mL of a LUV suspension to give 1:100 ligand:lipid molar ratio. At t=500 s, 40 μL of 5% Triton X-100 was added. Intravesicular pH values were obtained as a function of the ratio of HPTS emission intensities at 510 nm, when excited at […]. The calibration was performed by measuring the HPTS emission intensities and the pH values of a […] HPTS solution in 10 mM phosphate buffer containing 100 mM NaCl. The calibration equation obtained (pH=1.1684×log (I0I1)+6.9807, r=0.998, where I0 is the emission intensity with excitation at […]) was used to convert the emission intensities into actual pH values.
The pH reached its maximum 250 s after addition of 2 and held constant until the liposomes were lysed with detergent. […] In effect, compound 2 moves […] along with Cl^− down the chloride gradient, consequently building a pH gradient across the membrane. Therefore, NaCl filled vesicles lose Cl^− and H^+ upon addition of 2 and become more alkaline.
Calcein-Release Assay. Calcein-loaded vesicles (100 μL of the stock solution), filled with a saline phosphate buffer (10 mM sodium phosphate, pH 6.4, […] NaCl), were suspended in 1.85 mL of an isoosmotic phosphate sulfate buffer (10 mM sodium phosphate, pH 6.4^−75 mM (Na2SO4) and placed into a fluorimetric cell. HPTS emission at 510 nm was monitored with excitation wavelengths at 403 and 460 nm simultaneously. During the experiment, 20 μL of a 0-500 μM THF solution of the compound of interest was added through an injection port. Intravesicular pH values were obtained as a function of the ratio of HPTS emission intensities at 510 nm, when excited at 403 and 460 nm. […]

## CCCCNC(=O)COc1c2cccc1Cc1cccc(c1OCC(=O)NCCCC)Cc1cccc(c1OCC(=O)NCCCC)Cc1cccc(c1OCC(=O)NCCCC)C2 [calix[4]arene tetrabutylamide 2, Calix[4]arene tetrabutylamide]
HEK-293 cells; +120 mV
  lavage time after which the current returned to the baseline: 1.5 min
HEK-293 cells; NaCl buffer
  cells that responded at +80 mV: 3 of 15
HEK-293 cells; application/wash cycle
  damage to the cell membrane: did not damage the cell membrane
HEK-293 cells; extracellular application, NaCl buffer
  holding potential at which current across the cell membrane was caused: +120 mV
HEK-293 cells; holding potentials between −120 and +120 mV
  current in isosmotic Na glutamate or Na2SO4 buffer: no current across the membrane
[1]
  change of intravesicular pH / pH gradient formation: rapid increase in intravesicular pH
  time to maximum intravesicular pH after addition: 250 s

Reference: patent US7355074B2, “Compounds having aromatic rings and side-chain amide-functionality and a method for transporting monovalent anions across biological membranes using the same” (The University of Maryland, priority 2003, dated 2008)
